Measurements reported in patent publication US9441262B2, “MASP-2, a complement fixing enzyme, and uses for it” (Helion Biotech ApS, priority 1997, dated 2016).

Molecular target: T1, MASP-2 (Homo sapiens, UniProt O00187)
T1 construct: applying test samples, e.g., diluted plasma or serum samples; from tissue; host or cells: plasma or serum
Assay: TRIFMA for MASP-2 activity of the MBL/MASP complex (C4 activation on mannan-coated wells)
Assay type: biochemical
Experimental: MASP-2 may be estimated by its capacity to activate the complement system. When C4 is cleaved by MASP-2 an active thiol ester is exposed and C4 becomes covalently attached to nearby nucleophilic groups. A substantial part of the C4b will thus become attached to the coated plastic well and may be detected by anti-C4 antibody. A quantitative TRIFMA for MASP-2 activity was constructed by 1) coating microtitre wells with 1 μg mannan in 100 μl buffer; 2) blocking with Tween-20; 3) applying test samples, e.g., diluted plasma or serum samples; 4) applying purified complement factor C4 at 5 μg/ml; 5) incubate for one hour at 37° C.; 6) applying Eu-labelled anti-C4 antibody; 7) applying enhancement solution; and 8) reading the Eu by time resolved fluorometry. (Estimation by ELISA may be carried out similarly, e.g. by applying biotin-labelled anti-C4 in step 6; 7) apply alkaline phosphatase-labelled avidin; 8) apply substrate; and 9) read the colour intensity). Between each step the plate was incubated at room temperature and washed, except between step 7 and 8. A calibration curve can be constructed using dilutions of one selected normal plasma, arbitrarily said to contain 1 unit of MBL/MASP-2 activity per ml. The assay is carried out at conditions which preclude activation of C4 by the classical or alternative complement activation pathways.

T1 sequence (O00187 445-686 limits assumed): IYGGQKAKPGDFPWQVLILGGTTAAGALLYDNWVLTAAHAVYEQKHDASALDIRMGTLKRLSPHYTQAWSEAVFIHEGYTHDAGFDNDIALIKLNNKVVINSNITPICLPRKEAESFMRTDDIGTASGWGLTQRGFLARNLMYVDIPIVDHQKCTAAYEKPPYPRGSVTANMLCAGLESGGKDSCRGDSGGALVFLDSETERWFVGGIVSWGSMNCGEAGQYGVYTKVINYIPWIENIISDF
T1 sequence (O00187 16-444 partner limits assumed): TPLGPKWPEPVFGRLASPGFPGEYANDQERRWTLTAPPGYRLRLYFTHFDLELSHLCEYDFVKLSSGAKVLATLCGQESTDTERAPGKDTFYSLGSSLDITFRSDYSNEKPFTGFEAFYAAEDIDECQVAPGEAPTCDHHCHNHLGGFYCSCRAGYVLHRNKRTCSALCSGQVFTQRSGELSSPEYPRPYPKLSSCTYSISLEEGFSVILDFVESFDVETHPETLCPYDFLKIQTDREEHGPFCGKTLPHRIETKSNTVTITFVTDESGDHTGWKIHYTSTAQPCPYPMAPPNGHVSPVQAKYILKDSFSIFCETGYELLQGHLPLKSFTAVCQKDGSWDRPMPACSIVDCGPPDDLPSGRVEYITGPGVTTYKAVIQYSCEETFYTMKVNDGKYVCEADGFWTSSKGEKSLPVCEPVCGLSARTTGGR
T1 sequence (P11226 21-248 partner): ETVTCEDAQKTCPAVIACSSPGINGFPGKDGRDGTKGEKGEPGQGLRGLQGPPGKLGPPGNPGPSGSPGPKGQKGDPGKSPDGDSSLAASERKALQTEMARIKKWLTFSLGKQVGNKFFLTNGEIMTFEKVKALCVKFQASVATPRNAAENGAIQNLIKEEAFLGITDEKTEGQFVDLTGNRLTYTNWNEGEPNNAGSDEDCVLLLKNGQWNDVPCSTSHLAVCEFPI

activation of C4 (purified C4 at 5 μg/ml, one hour at 37° C.) | SMILES | effectiveness as enzyme inhibitor in the TRIFMA for MASP-2 activity
 | O=S(=O)(F)Cc1ccccc1 [PMSF] | proved effective
 | Cl.NCCc1ccc(S(=O)(=O)F)cc1 [Pefabloc] | inhibitors of MASP-2 activity
completely inhibited | N=C(N)c1ccccc1 [benzamidine] | proved effective
